The results in this text go back to article PMC10583352, “B7H3 targeting gold nanocage pH-sensitive conjugates for precise and synergistic chemo-photothermal therapy against NSCLC” (Journal of Nanobiotechnology, 2023).

Series [1] concerns NCI-H1299 cells. Description: MTT cytotoxicity with/without NIR irradiation. Format: cell-based, human. As to conditions: without irradiation, 24 h. As for the experimental part:
The cytotoxicity of B7H3/Dox@GNCs on tumor cells was assessed using the MTT assay. Briefly, NCI-H1299 cells (4 × 10^3 cells/well) were seeded in a 96-well plate and incubated for 12 h until the cells were completely attached. […] The cells were cultured for another 12 h and cell viability was determined using the MTT method.

Series [2] is described as follows: Pharmacokinetics after single i.v. administration in rats (plasma Dox, LC-MS/MS). Format: in vivo, Sprague–Dawley rats. As to conditions: 3 mg/kg Dox equivalent, Mean ± SD, n = 6. As for the experimental part: The pharmacokinetic properties of B7H3/Dox@GNCs were studied using 18 male Sprague–Dawley rats, weighing 200 ± 20 g. The rats were randomly divided into three groups (n = 6 per group) and administered Dox•HCl, Dox@GNCs, and B7H3/Dox@GNCs (3 mg/kg Dox equivalent dose) intravenously (i.v.) through the tail vein. Next, 300 μL blood samples were collected into heparinized tubes from the venous plexus at 0, 0.05, 0.13, 0.25, 0.5, 1, 1.5, 2, 4, 6, 8, 12, and 24 h. After centrifugation at 3000 × g for 15 min, the plasma samples were obtained and stored at – 80 ℃ until analysis.
(§1) The collected tissues were diced into small pieces and homogenized with three volumes of saline. Subsequently, 100 μL plasma and tissue homogenate samples were spiked with 10 μL epirubicin as the internal standard and vortex-mixed with 300 μL methanol for 5 min. After 15 min of centrifugation at 15,000 × g and 4 °C to precipitate proteins, 5 μL supernatant aliquots were analyzed using HPLC–MS/MS.

Another series has as its system NCI-H1299 lung tumor. The series is described as follows: Histological examination (H&E, CD34 IHC) of tissues of xenograft-bearing mice. Format: in vivo. As to conditions: xenograft-bearing mice after i.v. administration.
A short description of series [3]: Biodistribution of Dox in tumor-bearing mice. As to conditions: i.v. 3 mg/kg Dox. Format: in vivo, BALB/c athymic nude male mice. The procedure:
as §1, with “A xenograft model was established using BALB/c athymic nude male mice (weight: 20 ± 2 g) and NCI-H1299 cells. […] The collected tissues were rinsed in ice-cold physiological saline to remove the superficial blood and other debris and stored at − 80 ℃ until analysis. The” for “The”

In series [4] the test system is NCI-H1299 cells. Description: Cell cycle analysis (PI/RNase, flow cytometry). As to conditions: without irradiation, 1 μg/mL Dox equivalent, 24 h. Format: cell-based, human. The procedure:
Next, Dox, GNCs, B7H3@GNCs, Dox@GNCs, or B7H3/Dox@GNCs (1 μg/mL Dox equivalent) were added to the culture medium. […] After the cells were fixed, RNase A solution was added to degrade RNA, and cells were stained with PI. Finally, the samples were subjected to cell cycle analysis using flow cytometry. ROS was detected using the method described above, except that the cells were stained with DCFH-DA and analyzed using flow cytometry.

Series [5] relates to NCI-H1299 cell-derived xenograft. Description: Antitumor efficacy in NCI-H1299 cell-derived xenograft. Format: in vivo, BALB/c nude mice. The note with it: 14 day treatment. As for the experimental part:
The heterotopic xenograft mouse model of NSCLC was established by subcutaneous injection of 1.0 × 10^7 NCI-H1299 cells into the right dorsal side of BALB/c nude mice. The tumor size and body weight of the mice were measured and recorded every 2 days. The tumor volume (mm^3) was calculated using the formula: V = W^2 × L/2, where the width (W) and length (L) were measured using an electronic caliper. When the tumor volume reached 80–100 mm^3, mice were administered i.v. Dox at a dose of 3 mg/kg in the indicated formulation at 3 day intervals via the tail vein until euthanized.

`COc1cccc2c1C(=O)c1c(O)c3c(c(O)c1C2=O)C[C@@](O)(C(=O)CO)C[C@@H]3O[C@H]1C[C@H](N)[C@H](O)[C@H](C)O1.Cl` [Dox, doxorubicin hydrochloride] had a half-maximal inhibitory concentration (IC50) in the series on NCI-H1299 cells [1] of 2.50 µg/mL. In series [2], the CL turned out to be 2.17 ± 0 mL/min/kg, the “MRT0-∞” value came out at 9.43 ± 0.46 h, the T1/2 amounted to 8.67 ± 0.34 h and the Vd was 1.64 ± 0.41 L/kg. Further, in the series on NCI-H1299 lung tumor, the “heart tissue histology (H&E)” value is given as “Dox-induced damage to the heart was observed”. The “Dox concentrations in heart, liver, lungs, spleen and kidneys versus Dox@GNCs and B7H3/Dox@GNCs groups” value in series [3] was “significantly higher”. Besides, the “effect on cell cycle” value in the series on NCI-H1299 cells [4] was “stagnated in the S phase and G2/M phase”. Also, in series [5], the “body weight of mice” value is reported as “drastic decrease in body weight”. In series [5] (xenograft mice, i.v.), the tumor growth entry is listed as “suppressed tumor growth”.
